Laboratory results as given in patent publication US7521454B2 (Dainippon Sumitomo Pharma Co., Ltd., priority 2001, dated 2009).

Assays:
IL-5 production = assay: Inhibitory activity against Th2 cytokine produced from sensitized spleen cells: IL-5; assay type: cell-based, mouse; conditions: Mus musculus, 72 h, OVA-sensitized BALB/c spleen cells, 3 days, read-out: Inhibitory activity against IL-5 production
How it was run: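 BALB/c mice immunized i.p. with 10 μg ovalbumin on alum, boosted at day 14; spleen cells taken 7 days later. Cells (5×10^6/well) restimulated with ovalbumin 0.5 mg/ml plus test compound, cultured 3 days at 37° C, 5% CO2. Supernatant cytokine quantified by ELISA.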

Renca cells = assay: Antitumor effect in tumor-bearing mouse model (Renca); assay type: in vivo; conditions: Renca in BALB/c mice, 5 times every 4 days
Procedure: Murine renal adenocarcinoma-derived Renca cells (obtained from Iwate Medical University) were intradermally transplanted to the left ventral portions of 6-week-old BALB/c male mice (Charles River Japan, Inc.) at 5×10^4 cells/0.05 ml/mouse. Their body weights were measured on the next day, and they were divided into 5 groups (each group comprising 6 mice) in such a manner that the average body weights were substantially the same among groups. Vehicles (an aqueous solution of 0.5% carboxymethylcellulose (hereinafter referred to as “CMC-Na”)) and the compound of Example 27 (1 mg/kg and 3 mg/kg) were forcibly administered orally using an oral Sonde (10 ml/kg). Mouse interferon a (hereinafter referred to as “mIFN-α”) was intradermally administered to mice through their backs in amounts of 1×10^4 U/0.1 ml and 5×10^4 U/0.1 ml per mouse. Administration was carried out 5 times every 4 days. The longer diameter (L, mm) and the shorter diameter (W, mm) of the generated tumors were measured twice a week, and the tumor volumes (V, mm^3) were calculated (V=L×W^2). Also, significant difference was examined in accordance with Steel's multiple comparison. […]
A surveillance period of about 30 days after the transplantation was provided, the tumor volume and the body weight were monitored, and an antitumor effect against the Renca cells was evaluated. […]

[1] = Gastrointestinal absorption in rat (drug level in blood by HPLC); assay type: in vivo; conditions: blood, dose 3 mg/kg oral, SD male rat
Procedure: A test compound was suspended in an aqueous solution of 0.5% carboxymethylcellulose, and the resulting suspension was orally administered to an SD male rat. Blood was sampled with the elapse of time, and the level of the drug in blood was assayed by HPLC.

OV2944-HM-1 cells = assay: Antitumor effect in mouse model of spontaneous metastasis (OV2944-HM-1); assay type: in vivo; conditions: 35 days after transplantation, Example 27 3 mg/kg oral, mIFN-α 5×10^4 U intradermal
Procedure: OV2944-HM-1 cells (obtained from Hiroshima University) derived from mouse ovarian cancer that is highly metastatic to the lymph nodes were intradermally transplanted to the buttocks of 6-week-old B6C3F1 female mice (Charles River Japan, Inc.) in amounts of 1×10^6 cells/0.05 ml/mouse. Ten days after the transplantation, the primary tumor was excised under Nembutal anaesthesia. Adhesives (Aron Alpha) were applied to the excised portions, and the stumps were sewed up with wound clips. The next day, body weights were measured, and they were divided into 3 groups (each group comprising 6 mice) in such a manner that the average body weights among groups were substantially the same. Vehicles (aqueous solutions of 0.5% CMC-Na) and the compound of Example 27 (3 mg/kg) were forcibly administered orally using an oral Sonde (10 ml/kg). Also, 5×10^4 U/0.1 ml/mouse of mIFN-α was intradermally administered through their backs. Administration was carried out 5 times every 4 days. Regional lymph nodes (mouse cervical, brachium, axillary cavity) were extirpated 35 days after the transplantation, and their wet weights were measured. Simultaneously, lungs were extirpated to visually inspect the metastasis. Also, significant difference was examined in accordance with Steel's multiple comparison. The SAS system for Windows Release 8.01 (SAS Institute Inc., Cary, N.C., U.S.A.) was used for the examination.
Thus, pulmonary metastasis was examined.

[2] = test system: rat model of eosinophil leukocytic infiltration; assay: Rat model of eosinophil leukocytic infiltration (OVA, bronchoalveolar lavage); assay type: in vivo; conditions: 2.5 hours before induction, lavage 24 hours after
Procedure: A rat was immunized intraperitoneally with 1 ml of a solution containing 1 mg of ovalbumin (OVA) and 100 mg of Al(OH)3 on day 0 and day 7. On day 14, a 1% OVA solution was sprayed for 15 minutes using a ultrasonic nebulizer to induce reactions. A test compound was administered intratracheally 2.5 hours before the induction. Bronchoalveolar lavage was performed 24 hours after the induction, and eosinocytes in the wash was stained with Hinkelman to count the number of stained cells. Sensi.−/Challe.+, CMC-Na, and Fluticasone were used as controls. FIG. 1 and the following table show the results.

Balb/c male mouse = assay: Interferon-inducing activity in mouse (in vivo), serum interferon titer after oral dosing; conditions: serum 2 h after dosing, Balb/c mouse
mouse spleen cell = assay: cells; assay type: cell-based; conditions: Mus musculus, 24 h, read-out: Interferon-inducing activity: Minimum effective concentration
[3] = test system: human peripheral blood mononuclear cells (PBMC); assay: Interferon-inducing activity in human peripheral blood mononuclear cells (PBMC), IFN-α ELISA; assay type: cell-based; conditions: 24 h;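 also: IFN-α in pg/ml with a 1.25 pg/ml detection limit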
Procedure: Peripheral bloods were sampled from 5 healthy volunteers using a syringe containing heparin, and peripheral blood mononuclear cells (PBMC) were prepared by density gradient centrifugation utilizing the Lymphoprep™ (NYCOMED PHARMA AS). PBMCs were washed twice in serum-free RPMI 1640 medium and adjusted at 1×10^6 cells/ml in RPMI 1640 medium comprising 10% fetal bovine serum. The product was cultured in the presence of a test compound dissolved in dimethyl sulfoxide (final concentration: 0.1%) in an incubator in the presence of 5% CO^2 at 37° C. for 24 hours. As a control, 0.1% dimethyl sulfoxide containing no test compound was used. The culture supernatant was aseptically collected by filtration. Thereafter, the supernatant was cryopreserved at −20° C. or lower until it was subjected to the assay for IFN-inducing activity. Human IFN-α in the culture supernatant was quantified using a highly sensitive ELISA system (Amersham).

With `CCCCNc1nc(N)c2nc(O)n(Cc3ccc(C)nc3)c2n1` [Example 27, 2-Butylamino-8-hydroxy-9-(6-methyl-3-pyridylmethyl)adenine] the activity at 0.001 µM (IL-5 production; concentration 1 nM) was 68%, the activity at 0.01 µM (IL-5 production; concentration 10 nM) was 20% and the activity at 0.1 µM (IL-5 production; concentration 100 nM) was 12%. For the same molecule, the “antitumor effect compared with mIFN-α” value (Renca cells; 1 and 3 mg/kg oral) was “equivalent to or higher than that attained by the administration of mIFN-α”, the “tumor volume compared with the vehicle group” value (Renca cells; Example 27 1 and 3 mg/kg oral, mIFN-α 1×10^4 and 5×10^4 U intradermal, P<0.05) was “significantly smaller” and the Cmax ([1]; read-out: Cmax) was 565 ng/mL. The Tmax ([1]; read-out: Tmax) was 30 min, the “pulmonary metastasis (visual inspection), in words” value (OV2944-HM-1 cells) was “not observed at all” and the “lymph node metastasis (wet weight of metastasis lymph nodes vs vehicle group)” value (OV2944-HM-1 cells; B6C3F1 mice, 5 times every 4 days) was “smaller than those attained from the group to which vehicles were administered”. For the same molecule, the “The number of mice which exhibited pulmonary metastasis in 6 mice” value (OV2944-HM-1 cells; visual inspection) was 0, the “eosinocytes in bronchoalveolar lavage, Average” value (“eosinocytes” below) ([2]; 0.001 mg/kg intratracheal) was 383.85 ×10^4 cells and the “eosinocytes” value ([2]; 0.01 mg/kg intratracheal) was 186.77 ×10^4 cells. For the same molecule, the “eosinocytes” value ([2]; 0.1 mg/kg intratracheal) was 46.84 ×10^4 cells, the Interferon-inducing activity (Balb/c male mouse; dosage 0.03 mg/kg oral) was 14 ± 3 U/ml and the Interferon-inducing activity (Balb/c male mouse; dosage 0.1 mg/kg oral) was 324 ± 66 U/ml. For the same molecule, the Interferon-inducing activity (Balb/c male mouse; dosage 0.3 mg/kg oral) was 804 ± 274 U/ml, the minimal effective concentration (mouse spleen cell) was 0.003 µM and the “Interferon-inducing activity (human IFN-α in culture supernatant)” value ([3]; concentration 1 nM) was 6 ± 3 pg/mL. The “Interferon-inducing activity (human IFN-α in culture supernatant)” value ([3]; concentration 3 nM) was 26 ± 22 pg/mL, the “Interferon-inducing activity (human IFN-α in culture supernatant)” value ([3]; concentration 10 nM) was 56 ± 37 pg/mL and the “Interferon-inducing activity (human IFN-α in culture supernatant)” value ([3]; concentration 30 nM) was 59 ± 33 pg/mL.
